# Assays:
# TBK1 = TBK1 (Homo sapiens (Human), UniProt Q9UHD2); test: TBK1 TR-FRET enzymatic assay;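 further: phosphorylation of a biotinylated Ser/Thr peptide by purified full-length recombinant TBK1, read by TR-FRET after 240 min at 25 °C, IC50 is the geometric mean of at least four runs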
# hJAK2 = hJAK2 (Homo sapiens (Human), UniProt O60674); test: hJAK2 LANCE TR-FRET enzymatic assay; assay type: biochemical; conditions: read-out: JAK2 IC50
# IKKε = IKKε (Homo sapiens (Human), UniProt Q14164); test: IKKε TR-FRET enzymatic assay; assay type: biochemical; conditions: read-out: IKKe IC50
# Sequence of IKKε (Q14164 whole entry): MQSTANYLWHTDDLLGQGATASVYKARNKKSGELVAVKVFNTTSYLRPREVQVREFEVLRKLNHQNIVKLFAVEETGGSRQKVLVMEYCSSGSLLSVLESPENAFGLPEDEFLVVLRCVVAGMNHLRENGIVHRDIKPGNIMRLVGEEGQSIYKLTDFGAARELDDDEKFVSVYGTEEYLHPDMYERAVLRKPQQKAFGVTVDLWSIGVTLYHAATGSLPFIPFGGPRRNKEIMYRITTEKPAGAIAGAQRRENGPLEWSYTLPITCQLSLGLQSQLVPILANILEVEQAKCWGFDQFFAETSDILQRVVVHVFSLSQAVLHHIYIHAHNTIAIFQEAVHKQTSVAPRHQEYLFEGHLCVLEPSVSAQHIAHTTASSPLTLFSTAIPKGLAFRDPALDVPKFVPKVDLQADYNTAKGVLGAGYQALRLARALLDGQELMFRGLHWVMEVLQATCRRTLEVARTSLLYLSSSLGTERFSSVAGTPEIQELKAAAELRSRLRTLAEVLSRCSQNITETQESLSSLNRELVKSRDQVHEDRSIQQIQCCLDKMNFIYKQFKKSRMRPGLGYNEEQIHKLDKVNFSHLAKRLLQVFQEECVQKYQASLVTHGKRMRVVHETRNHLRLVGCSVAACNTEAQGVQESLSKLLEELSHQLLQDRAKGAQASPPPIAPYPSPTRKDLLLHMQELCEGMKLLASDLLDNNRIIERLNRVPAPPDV
# Sequence of hJAK2 (O60674 whole entry): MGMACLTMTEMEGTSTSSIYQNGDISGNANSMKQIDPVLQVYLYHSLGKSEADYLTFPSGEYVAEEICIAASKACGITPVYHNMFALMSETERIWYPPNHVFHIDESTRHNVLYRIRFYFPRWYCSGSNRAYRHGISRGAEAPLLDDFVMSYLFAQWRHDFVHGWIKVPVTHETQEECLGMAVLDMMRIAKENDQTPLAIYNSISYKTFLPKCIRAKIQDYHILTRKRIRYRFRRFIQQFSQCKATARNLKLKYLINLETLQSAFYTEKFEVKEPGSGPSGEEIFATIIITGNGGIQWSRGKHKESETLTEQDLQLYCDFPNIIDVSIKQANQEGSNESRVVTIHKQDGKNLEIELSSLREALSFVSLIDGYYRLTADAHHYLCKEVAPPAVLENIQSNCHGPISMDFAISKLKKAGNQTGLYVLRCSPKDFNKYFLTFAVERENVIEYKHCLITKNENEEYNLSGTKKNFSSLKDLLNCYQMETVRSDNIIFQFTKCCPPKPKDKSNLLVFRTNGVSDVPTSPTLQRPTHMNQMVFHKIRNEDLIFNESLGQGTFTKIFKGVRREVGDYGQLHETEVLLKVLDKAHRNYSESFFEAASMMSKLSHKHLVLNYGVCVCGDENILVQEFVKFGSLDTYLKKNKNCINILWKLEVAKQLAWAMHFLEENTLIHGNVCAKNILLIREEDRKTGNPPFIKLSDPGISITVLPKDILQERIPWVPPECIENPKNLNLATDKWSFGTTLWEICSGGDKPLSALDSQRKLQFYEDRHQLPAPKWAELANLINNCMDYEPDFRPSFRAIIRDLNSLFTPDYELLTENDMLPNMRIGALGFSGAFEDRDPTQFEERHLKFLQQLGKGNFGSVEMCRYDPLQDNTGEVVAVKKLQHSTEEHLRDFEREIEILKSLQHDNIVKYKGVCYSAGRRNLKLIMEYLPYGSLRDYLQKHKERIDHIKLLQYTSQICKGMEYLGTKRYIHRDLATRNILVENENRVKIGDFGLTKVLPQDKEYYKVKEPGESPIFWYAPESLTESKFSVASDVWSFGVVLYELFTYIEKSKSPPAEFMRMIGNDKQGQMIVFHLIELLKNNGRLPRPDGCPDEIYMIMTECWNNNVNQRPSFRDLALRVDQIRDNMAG
# Sequence of TBK1 (Q9UHD2 whole entry): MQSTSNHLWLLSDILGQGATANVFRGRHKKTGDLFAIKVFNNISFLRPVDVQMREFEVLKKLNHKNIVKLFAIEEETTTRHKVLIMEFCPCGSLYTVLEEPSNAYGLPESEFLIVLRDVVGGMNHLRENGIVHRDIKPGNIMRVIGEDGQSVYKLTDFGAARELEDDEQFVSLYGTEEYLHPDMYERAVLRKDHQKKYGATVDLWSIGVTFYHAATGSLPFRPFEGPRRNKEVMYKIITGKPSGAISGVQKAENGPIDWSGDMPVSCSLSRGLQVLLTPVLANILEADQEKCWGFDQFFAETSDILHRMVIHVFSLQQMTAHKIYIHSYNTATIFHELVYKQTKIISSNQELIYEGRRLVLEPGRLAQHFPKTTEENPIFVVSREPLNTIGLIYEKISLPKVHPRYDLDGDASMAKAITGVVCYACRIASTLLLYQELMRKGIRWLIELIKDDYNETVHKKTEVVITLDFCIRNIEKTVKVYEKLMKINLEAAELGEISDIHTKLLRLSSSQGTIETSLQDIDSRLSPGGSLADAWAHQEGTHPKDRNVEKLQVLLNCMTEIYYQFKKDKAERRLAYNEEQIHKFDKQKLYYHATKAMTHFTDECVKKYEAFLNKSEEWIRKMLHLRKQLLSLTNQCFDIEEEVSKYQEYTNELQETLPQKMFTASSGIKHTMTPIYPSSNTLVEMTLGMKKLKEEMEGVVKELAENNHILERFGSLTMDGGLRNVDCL
SMILES,IC50 (TBK1),IC50 (hJAK2),IC50 (IKKε)
"CC1(C)C(=O)Nc2ccc(Nc3ncnc(-c4ccc(OC5CCOCC5)c(C#N)c4)n3)cc21 [Example 278, 5-(4-((3,3-dimethyl-2-oxoindolin-5-yl)amino)-1,3,5-triazin-2-yl)-2-((tetrahydro-2H-pyran-4-yl)oxy)benzonitrile]",4 nM,541 nM,9 nM
"N#Cc1cc(-c2ncnc(Nc3ccc(N4CCN(C5COC5)CC4)cc3)n2)ccc1OC1CCC2(CC1)OCCO2 [Example 279, 2-(1,4-dioxaspiro[4.5]decan-8-yloxy)-5-(4-((4-(4-(oxetan-3-yl)piperazin-1-yl)phenyl)amino)-1,3,5-triazin-2-yl)benzonitrile]",27 nM,≥ 1000 nM,75 nM
"N#Cc1cc(-c2ncnc(Nc3ccc(N4CCN(C5COC5)CC4)cc3)n2)ccc1OCC1(F)COC1 [Example 280, 2-((3-fluorooxetan-3-yl)methoxy)-5-(4-((4-(4-(oxetan-3-yl)piperazin-1-yl)phenyl)amino)-1,3,5-triazin-2-yl)benzonitrile]",4 nM,110 nM,10 nM
"C[C@H](Oc1ccc(-c2ncnc(Nc3ccc(N4CCN(C5COC5)CC4)cc3)n2)cc1C#N)C1CCOCC1 [Example 282, (S)-5-(4-((4-(4-(oxetan-3-yl)piperazin-1-yl)phenyl)amino)-1,3,5-triazin-2-yl)-2-(1-(tetrahydro-2H-pyran-4-yl)ethoxy)benzonitrile]",14 nM,219 nM,16 nM
"C[C@@H](Oc1ccc(-c2ncnc(Nc3ccc(N4CCN(C5COC5)CC4)cc3)n2)cc1C#N)C1CCOCC1 [Example 283, (R)-5-(4-((4-(4-(oxetan-3-yl)piperazin-1-yl)phenyl)amino)-1,3,5-triazin-2-yl)-2-(1-(tetrahydro-2H-pyran-4-yl)ethoxy)benzonitrile]",22 nM,450 nM,115 nM
"N#Cc1cc(-c2ncnc(Nc3ccc(N4CCN(C5COC5)CC4)cc3)n2)ccc1OCC1CCOCC1 [Example 285, 5-(4-((4-(4-(oxetan-3-yl)piperazin-1-yl)phenyl)amino)-1,3,5-triazin-2-yl)-2-((tetrahydro-2H-pyran-4-yl)methoxy)benzonitrile]",4 nM,313 nM,8 nM
"CC(C)[C@H](Oc1ccc(-c2ncnc(Nc3ccc(N4CCN(C5COC5)CC4)cc3)n2)cc1C#N)C(N)=O [Example 286, (S)-2-(2-cyano-4-(4-((4-(4-(oxetan-3-yl)piperazin-1-yl)phenyl)amino)-1,3,5-triazin-2-yl)phenoxy)-3-methylbutanamide]",94 nM,≥ 1000 nM,237 nM
"N#Cc1cc(-c2ncnc(Nc3ccc(N4CC(O)C4)nc3)n2)ccc1OC1CCOCC1 [Example 287, 5-(4-((6-(3-hydroxyazetidin-1-yl)pyridin-3-yl)amino)-1,3,5-triazin-2-yl)-2-((tetrahydro-2H-pyran-4-yl)oxy)benzonitrile]",15 nM,≥ 1000 nM,20 nM
"CC(=O)N1CC[C@H](Oc2ccc(-c3ncnc(Nc4ccc(N5CCN(C6COC6)CC5)cc4)n3)cc2C#N)[C@H](F)C1 [Example 289, 2-(((3R,4S)-1-acetyl-3-fluoropiperidin-4-yl)oxy)-5-(4-((4-(4-(oxetan-3-yl)piperazin-1-yl)phenyl)amino)-1,3,5-triazin-2-yl)benzonitrile]",4 nM,444 nM,5 nM
"N#Cc1cc(-c2ncnc(Nc3ccc(N4CCN(C5COC5)CC4)cc3)n2)ccc1O[C@H]1CCCC[C@H]1N [Example 291, 2-(((1S,2R)-2-aminocyclohexyl)oxy)-5-(4-((4-(4-(oxetan-3-yl)piperazin-1-yl)phenyl)amino)-1,3,5-triazin-2-yl)benzonitrile]",266 nM,474 nM,603 nM
"C[C@H](O)C(=O)N1CC[C@H](Oc2ccc(-c3ncnc(Nc4cnn(C(C)(C)C)c4)n3)cc2C#N)[C@H](F)C1 [Example 294, 5-(4-((1-(tert-butyl)-1H-pyrazol-4-yl)amino)-1,3,5-triazin-2-yl)-2-(((3R,4S)-3-fluoro-1-((S)-2-hydroxypropanoyl)piperidin-4-yl)oxy)benzonitrile]",4 nM,228 nM,5 nM
"N#Cc1cc(-c2ncnc(Nc3ccc(N4CCN(C=O)CC4)c(F)c3)n2)ccc1O[C@H]1CCOC[C@H]1F [Example 299, 5-(4-((3-fluoro-4-(4-formylpiperazin-1-yl)phenyl)amino)-1,3,5-triazin-2-yl)-2-(((3R,4S)-3-fluorotetrahydro-2H-pyran-4-yl)oxy)benzonitrile]",4 nM,401 nM,8 nM
"CN1CCC(c2ccc(Nc3ncnc(-c4ccc(O[C@H]5CCOC[C@H]5F)c(C#N)c4)n3)cc2)CC1 [Example 300, 2-(((3R,4S)-3-fluorotetrahydro-2H-pyran-4-yl)oxy)-5-(4-((4-(1-methylpiperidin-4-yl)phenyl)amino)-1,3,5-triazin-2-yl)benzonitrile]",4 nM,453 nM,3 nM
"C[C@H](O)C(=O)N1CC[C@H](Oc2ccc(-c3ncnc(Nc4ccc(C5CCN(C6COC6)CC5)c(F)c4)n3)cc2C#N)[C@H](F)C1 [Example 310, 2-(((3R,4S)-3-fluoro-1-((S)-2-hydroxypropanoyl)piperidin-4-yl)oxy)-5-(4-((3-fluoro-4-(1-(oxetan-3-yl)piperidin-4-yl)phenyl)amino)-1,3,5-triazin-2-yl)benzonitrile]",4 nM,≥ 1000 nM,2 nM
"C[C@H](O)C(=O)N1CC[C@H](Oc2ccc(-c3ncnc(Nc4ccc(N5CC6(CCOCC6)C5)cc4)n3)cc2C#N)[C@H](F)C1 [Example 313, 5-(4-((4-(7-oxa-2-azaspiro[3.5]nonan-2-yl)phenyl)amino)-1,3,5-triazin-2-yl)-2-(((3R,4S)-3-fluoro-1-((S)-2-hydroxypropanoyl)piperidin-4-yl)oxy)benzonitrile]",4 nM,375 nM,2 nM

# The next compounds have a lower IC50 (TBK1) than those just listed; values first:
IC50 (TBK1),IC50 (hJAK2),IC50 (IKKε),SMILES
3 nM,316 nM,2 nM,"N#Cc1cc(-c2ncnc(Nc3ccc(N4CCN(C5COC5)CC4)cc3)n2)ccc1O[C@H]1CCN(C(=O)C(F)F)C[C@H]1F [Example 288, 2-(((3R,4S)-1-(2,2-difluoroacetyl)-3-fluoropiperidin-4-yl)oxy)-5-(4-((4-(4-(oxetan-3-yl)piperazin-1-yl)phenyl)amino)-1,3,5-triazin-2-yl)benzonitrile]"
3 nM,≥ 1000 nM,2 nM,"C[C@H](O)C(=O)N1CC[C@H](Oc2ccc(-c3ncnc(Nc4ccc(C5CCOCC5)cc4)n3)cc2C#N)[C@H](F)C1 [Example 293, 2-(((3R,4S)-3-fluoro-1-((S)-2-hydroxypropanoyl)piperidin-4-yl)oxy)-5-(4-((4-(tetrahydro-2H-pyran-4-yl)phenyl)amino)-1,3,5-triazin-2-yl)benzonitrile]"
3 nM,274 nM,1 nM,"N#Cc1cc(-c2ncnc(Nc3ccc(N4CCNCC4)c(F)c3)n2)ccc1O[C@H]1CCN(C=O)C[C@H]1F [Example 296, 2-(((3R,4S)-3-fluoro-1-formylpiperidin-4-yl)oxy)-5-(4-((3-fluoro-4-(piperazin-1-yl)phenyl)amino)-1,3,5-triazin-2-yl)benzonitrile]"
3 nM,268 nM,1 nM,"N#Cc1cc(-c2ncnc(Nc3ccc(N4CCN(C5CCOCC5)CC4)c(F)c3)n2)ccc1O[C@H]1CCN(C(=O)CO)C[C@H]1F [Example 307, 2-(((3R,4S)-3-fluoro-1-(2-hydroxyacetyl)piperidin-4-yl)oxy)-5-(4-((3-fluoro-4-(4-(tetrahydro-2H-pyran-4-yl)piperazin-1-yl)phenyl)amino)-1,3,5-triazin-2-yl)benzonitrile]"
3 nM,636 nM,3 nM,"C[C@H](O)C(=O)N1CC[C@H](Oc2ccc(-c3ncnc(Nc4ccc(N5CCN(C6(C)COC6)CC5)cc4)n3)cc2C#N)[C@H](F)C1 [Example 312, 2-(((3R,4S)-3-fluoro-1-((S)-2-hydroxypropanoyl)piperidin-4-yl)oxy)-5-(4-((4-(4-(3-methyloxetan-3-yl)piperazin-1-yl)phenyl)amino)-1,3,5-triazin-2-yl)benzonitrile]"
2 nM,185 nM,8 nM,"COc1cc(Nc2ncnc(-c3ccc(OC4CCN(C(=O)[C@H](C)O)CC4)c(C#N)c3)n2)ccc1N1CCN(C2COC2)CC1 [Example 281, (S)-2-((1-(2-hydroxypropanoyl)piperidin-4-yl)oxy)-5-(4-((3-methoxy-4-(4-(oxetan-3-yl)piperazin-1-yl)phenyl)amino)-1,3,5-triazin-2-yl)benzonitrile]"
2 nM,397 nM,4 nM,"N#Cc1cc(-c2ncnc(Nc3ccc(N4CCN(C5COC5)CC4)cc3)n2)ccc1O[C@H]1CCOC[C@H]1F [Example 297, 2-(((3R,4S)-3-fluorotetrahydro-2H-pyran-4-yl)oxy)-5-(4-((4-(4-(oxetan-3-yl)piperazin-1-yl)phenyl)amino)-1,3,5-triazin-2-yl)benzonitrile]"
2 nM,475 nM,1 nM,"C[C@H](O)C(=O)N1CC[C@H](Oc2ccc(-c3ncnc(Nc4ccc(N5CCN(CC6COC6)CC5)cc4)n3)cc2C#N)[C@H](F)C1 [Example 308, 2-(((3R,4S)-3-fluoro-1-((S)-2-hydroxypropanoyl)piperidin-4-yl)oxy)-5-(4-((4-(4-(oxetan-3-ylmethyl)piperazin-1-yl)phenyl)amino)-1,3,5-triazin-2-yl)benzonitrile]"
2 nM,423 nM,1 nM,"C[C@H](O)C(=O)N1CC[C@H](Oc2ccc(-c3ncnc(Nc4ccc(N5CCN(C6CCOCC6)CC5)cc4)n3)cc2C#N)[C@H](F)C1 [Example 309, 2-(((3R,4S)-3-fluoro-1-((S)-2-hydroxypropanoyl)piperidin-4-yl)oxy)-5-(4-((4-(4-(tetrahydro-2H-pyran-4-yl)piperazin-1-yl)phenyl)amino)-1,3,5-triazin-2-yl)benzonitrile]"

# Source: patent US10040781B2, “Tank-binding kinase inhibitor compounds” (Gilead Sciences, Inc., priority 2014, dated 2018)
